The values below are quoted from earlier work in patent US6399819B1, “Process for purifying creatine” (BASF Aktiengesellschaft, priority 1999, dated 2002).

For this series the following is noted: recrystallization from water.

Regarding `CN(CC(=O)O)C(=N)N` [creatine], the “temperature above which decomposition of creatine to creatinine and N-methylhydantoin increases to a level no longer acceptable” value was “about 80 °C”.
